Measurements from US5411969A, “Antihyperlipidemic/antioxidant dihydroquinolines” (Bristol-Myers Squibb Company, priority 1993, dated 1995).

Legend:
[1] = in vivo; cited from earlier work
[2] = tested on: hamster LDL; assay: Ex vivo LDL lipid peroxidation assay in hamsters (Cu++ oxidation; conjugated dienes or lipid peroxides); conditions: 17 days; for Conj. Dienes lag ratio: treated/control
Description: As a secondary screen, test compounds are evaluated ex vivo for their oral effectiveness to inhibit LDL oxidation. […] Again, the conjugated diene assay is used to assess lipid peroxidation.
Hamsters (n=6 per group) were placed on an atherogenic diet (0.4% cholesterol+10% vitamin E stripped corn oil), and were orally dosed for 17 days with the indicated compounds at 75 mpk/day. The resistance of hamster LDL to copper-dependent oxidation in vitro was determined by conjugated dienes or lipid peroxides.

[3] = tested on: human hepatoma HepG2 cells; assay: HepG2 cell culture model: cholesterol synthesis by 14C-acetate incorporation; assay type: cell-based; conditions: 4 h incubation, read-out: Cholesterol Biosynthesis
Description: (§1) The human hepatoma HepG2 cell culture model was employed to compare the intrinsic activities of the representative compounds of the present invention relative to the tocotrienols. HepG2 cells were incubated with the indicated compounds for 4 hours at 10 μM. Cholesterol synthesis was assayed by ^14 C-acetate incorporation over the final hour of incubation, and HMG-CoA reductase suppression (specific activity) was assayed in the microsomal fraction isolated from parallel cultures at the end of the 4 hour incubation.

[4] = tested on: HMG-CoA reductase; assay: In vivo evaluation in normocholesterolemic chickens: specific activity of HMG-CoA reductase; set-up: species or system chicken; conditions: male chickens, orally dosed for 4 weeks at 4 mg/kg/day
Description: (§2) Hypocholesterolemic activity was evaluated for representative compounds of the present invention using γ-tocotrienol as a control in normocholesterolemic chickens. Newborn male chicks (6-10 for each group) were raised on a standard corn-soybean-based control diet for two weeks and then were switched to either control or experimental diets for four weeks. Drug treatment consisted of the addition of test compound to the corn-soybean-based. At the end of the feeding period, all the birds were fasted (about 36 hours) and refed (about 48 hours) to induce cholesterolgenic enzymes prior to sacrifice. The specific activity of HMG-CoA reductase, total serum cholesterol levels, and HDL/LDL cholesterol pools were examined (Table II).
(§3) Effects of Compounds of the present invention on Lipid
(§4) Parameters in Male Chickens
(§5) Orally dosed for 4-weeks at 4 mg/kg/day

[5] = tested on: LDL; assay: In vitro LDL oxidation (Cu++), conjugated diene formation; assay type: biochemical, rabbit; conditions: for LDL Oxd. Inhib. mean lag ratio: 10 μM, rabbit plasma LDL, Cu++, treated/control lag time
[6] = In vivo hypocholesterolemic activity in normocholesterolemic chickens: total serum cholesterol and HDL/LDL cholesterol pools; set-up: species or system chicken; conditions: male chickens, orally dosed for 4 weeks at 4 mg/kg/day
Description: as §2, §3, §4, §5

[7] = Redox potential by cyclic voltammetry; assay type: physicochemical; conditions: for Oxd. Potential: cyclic voltammetry
Source text: One method for the measurement of general antioxidant capacity is stopped-flow kinetic analysis. (Mukai, et al., Bull. Chem. Soc. Jpn., 59: 3113-3116 (1986); Mukai, et al., J. Org. Chem., 54: 557-560 (1989); Mukai, et al. J. Org. Chem., 53: 430-432 (1988)). This is a sophisticated setup wherein, one measures radical transfer from a stable radical, (for example 2,6-di-tert-butyl-4-(4-methoxyphenyl)phenoxy), to a test compound spectrophotometrically as a function of time. […] (Mukai, et al., Bull. Chem. Soc. Jpn., 59: 3113-3116 (1986); Mukai, et al., J. Org. Chem., 54: 557-560 (1989); Mukai, et al. J. Org. Chem., 53: 430-432 (1988)). Voltammetry has been used by Moldeus et al. to study the antioxidant capacity of structurally related dibenzo[1,4]dichalcogenines as inhibitors of lipid peroxidation. (Cotgreave, et al., Biochem. Pharm., 42: 1481-85 (1991)). In their case, a strong correlation between voltammetric potential and the ability to inhibit lipid peroxidation was observed.
(Mukai, et al., J. Org. Chem., 53: 430-432 (1988); Mukai, et al., J. Org. Chem., 54: 552-556 (1989); Mukai, et al., J. Org. Chem., 56: 4188-4192 (1991)).

[8] = tested on: HMG-CoA reductase; assay: HepG2 cell culture model: HMG-CoA reductase suppression (specific activity, microsomal fraction); assay type: cell-based, human; conditions: 10 μM, 4 h incubation, HepG2 cells
Description: as §1

[9] = tested on: cholesterol fed rabbits; conditions: cited from earlier work

SMILES	lipid peroxide formation in LDL, % of Control, 1.5 h ([2]; 50 mg/kg/d oral)	lipid peroxide formation in LDL, % of Control, 3.0 h ([2]; 50 mg/kg/d oral)	activity at 10 µM [3]	LDL Oxd. Inhib. mean lag ratio [5]	Tot.-C [6]	Conj. Dienes lag ratio ([2]; 50 mg/kg/d oral)	also measured
CC(C)(Sc1cc(C(C)(C)C)c(O)c(C(C)(C)C)c1)Sc1cc(C(C)(C)C)c(O)c(C(C)(C)C)c1 [PROBUCOL, 4,4'-[(1-methylethylidene)bis(thio)]-bis[2,6-bis(1,1-dimethylethyl)]]	48 % of Control	93 % of Control	–	–	–	–	bioavailability [1]: suffers from bioavailability problems
CC(C)=CCC/C(C)=C/CC/C(C)=C/CCCCc1ccc2c(c1)C(C)=CC(C)(C)N2 [Compound 11, 1,2-Dihydro-2,2,4-Trimethyl-6-[6,10,14-Trimethyl-5(E),9(E), 13-Pentadecatrienyl]Quinoline]	–	–	89%	–	–	–	–
CC(C)=CCC/C(C)=C/CC/C(C)=C/CCCOc1ccc2c(c1)C(C)=CC(C)(C)N2 [Compound 4, 1,2-Dihydro-2,2,4-Trimethyl-6-[(5,9,13-Trimethyl-4(E),8(E),1 2-tetradecatrienyl)oxy]Quinoline]	3 % of Control	31 % of Control	48%	1.80	65.9 % of Control	1.57	HMGR [4]: 83.8 % of Control; LDL protective capacity compared with standard reference agents ([5]; in vitro and ex vivo (Tables III, IV), in words): superior LDL protective capacity; HDL-C [6]: 89.0 % of Control; LDL-C [6]: 45.3 % of Control; Oxd. Potential [7]: 0.47 Volts; oxidation potential compared with standard reference agents ([7]; over standard reference agents, in words): lower oxidation potential; HMGR Suppression [8]: 40% of Control
Cc1c(C)c2c(c(C)c1O)CCC(C)(CCCC(C)CCCC(C)CCCC(C)C)O2 (stereo not drawn) [α-Tocopherol]	15 % of Control	36 % of Control	–	1.01	–	> 3	–
Cc1c(O)cc2c(c1C)OC(C)(CCCC(C)CCCC(C)CCCC(C)C)CC2 (centres unmarked) [γ-Tocopherol]	–	–	–	1.17	–	–	–
O=C1O[C@H]([C@@H](O)CO)C(O)=C1O [Na Ascorbate]	8 % of Control	91 % of Control	–	–	–	1.33	–
CCOc1ccc2c(c1)C(C)=CC(C)(C)N2 [ETHOXYQUIN]	–	–	–	1.21	–	–	lipid peroxide formation in LDL, % of Control, 1.5 h ([2]; 75 mg/kg/d oral): 0 % of Control; lipid peroxide formation in LDL, % of Control, 3.0 h ([2]; 75 mg/kg/d oral): 13 % of Control; Conj. Dienes lag ratio ([2]; 75 mg/kg/d oral): 1.81
CC(C)=CCC/C(C)=C/CC/C(C)=C/CCCSc1ccc2c(c1)C(C)=CC(C)(C)N2 [Compound 8, 1,2-Dihydro-2,2,4-Trimethyl-6-[(5,9,13-Trimethyl-4(E),8(E),1 2-tetradecatrienyl)thio]Quinoline]	–	–	3%	1.64	100.9 % of Control	–	HDL-C [6]: 98.2 % of Control; LDL-C [6]: 99.1 % of Control; Oxd. Potential [7]: 1.20 Volts
CC(C)=CCC/C(C)=C/CC/C(C)=C/CCC1(C)CCc2cc(O)c(C)c(C)c2O1 (centres unmarked) [γ-Tocotrienol]	7 % of Control	67 % of Control	29%	1.27	76.3 % of Control	1.48	HMGR Suppression [8]: 65% of Control
Cc1cc(C(C)(C)C)c(O)c(C(C)(C)C)c1 [Butylatedhydroxytoluene]	–	–	–	1.38	–	–	–
CC1=CC(C)(C)Nc2ccc(OCCC/C=C(\C)CCc3cccc(C(F)(F)F)c3)cc21 [Compound 18]	–	–	42%	–	61.2 % of Control	–	HMGR [4]: 66.4 % of Control; HDL-C [6]: 93.8 % of Control; LDL-C [6]: 26.0 % of Control
CC1(C)C=C(CS(=O)(=O)O)c2cc(Cc3ccc4c(c3)C(CS(=O)(=O)O)=CC(C)(C)N4)ccc2N1 [MTDQ-DA]	–	–	–	–	–	–	effects on various lipid parameters ([9]; cholesterol fed rabbits): fairly modest effects on various lipid parameters; plaque progression ([9]; relative to the cholesterol fed rabbit controls): completely inhibited plaque progression
